# Where “and” joins values, the source holds several entries; their conditions need not be identical. Equal values may be shown once.
# Legend:
# Format in all cases: cell-based, rat
# p53 = assay: Western blotting of apoptotic protein p53 in cell lysates; conditions: for amount of intracellular p53: control 1.06±0.00; for p-53 amounts: INS-1 cells, normalized to β-actin
# Method: (§1) Trypsin is applied to 75 cm^2 flask containing INS-1 […] beta cells and it is centrifuged in 1500 rpm for 15 minutes. According to the density of pellet formed after centrifuge, it is centrifuged at 4 °C in 1500 rpm for 5 minutes by providing the washing with pipetting with PBS and transferring into 2 ml eppendorf. The supernatant was removed, lysis buffer was added according to the density of pellet and pipetting is performed carefully. It was left for 30 minutes on the ice by vortexing in every 10 minutes. Then the cells were allowed to lysis by ultrasonication for 10 seconds for 5 times, keeping on ice for 10 seconds and they were centrifuged at 4 °C in 13000 rpm for 10 minutes. The supernatant occurred was taken to 0,2 ml eppendorf tubes, and they were taken to -86 °C temperature. These operations were repeated for 3 times for each of the control and experiment groups.
# (§2) Bradford method was used in order to determine the protein content. First, a standard curve was formed by using BSA (bovine serum albumin) having a concentration of 1.46 mg/ml. This curve was prepared as following: Bradford solution was added into 80 µg/ml, 40 µg/ml, 20 µg/ml, 10 µg/ml BSA, their absorbance was measured in 595 nm, it was diluted in a way that the lysates are 1/100 and 160 µl was taken, their absorbance in the same wavelengths was determined. After absorbance/concentration graph of the standards was obtained, the concentrations of the samples whose concentrations are […] were determined by using the slope equation of this graph.
# (§3) Protein bands separated by electrophoresis in gel were transferred from the gel into nitrocellulose membrane. After membrane transferring operation, transfer efficiency was controlled for 15 minutes by using Ponceau S painting solution.
# (§4) The membrane wherein the proteins were transferred, was incubated at room temperature for 1 hour with blocking solution prepared with skimmed milk powder. The membranes were incubated with primary antibodies suitable diluting ratios (Table 1) for 1 night at +4 °C, following the blocking operation. Following this operation, washed membranes were treated with peroxidase marked goat anti-rabbit secondary IgGs (Santa Cruz, CA, USA, sc-2004) at room temperature for 1 hour. Following the treatment with secondary antibodies of membranes, they were washed with washing solution and shaken with pure water. Then, the specific protein bands were monitored by KodakGL1500 gel monitoring system, by chemiluminescence method using Western Blotting Luminol Reagent (Santa Cruz, CA, USA, sc-2048) chemiluminescence substrate. Their densitometric analysis were performed by "Kodak Molecular Imaging Systems" software. The statistical analysis between the bands were performed by normalizing the band densities of the protein samples whose densitometric analysis were performed, to the density of β-actin protein. Table 1: The primary antibodies used in Western blotting method, the dilution ratios and periods thereof
# (§5) In order to determine the apoptosis dose, p 53, cytochrome-c and active caspase-3 protein amounts were determined by western blotting method by obtaining lysate from the cells in which 0.75, 1,1.75,2,2.5 and 3 mM palmitic acid were applied. The graph obtained from western blotting bands and the calculation performed as a result of the analysis of these bands is shown in Figure 3.
# (§6) The amount of intracellular proteins such as p53, cytochrome-c and active caspase-3 were observed by western blotting in order to examine the effect of curaglutide on apoptosis stimulated by 2 mM palmitic acid in INS-1 beta cells.
# active caspase-3 = assay: Western blotting of apoptotic protein active caspase-3 in cell lysates; conditions: for amount of active caspase-3: control 1.07±0.01; for active caspase-3 amounts: INS-1 cells, normalized to β-actin
# Method: as §1, §2, §3, §4, §5, §6
# LC3-II = assay: Western blotting of autophagy marker LC3-II in cell lysates; conditions: for amount of intracellular LC3-II: control 0.44±0.00; for LC3-II amounts: INS-1 cells
# Method: as §1, §2, §3, §4
# In order to determine the autophagic dose, LC3-II protein amounts which are the autophagic markers were determined by western blotting method by obtaining lysate from the cells on which 0.75, 1, 1.75, 2, 2.5 and 3 mM palmitic acid was applied. The graph obtained from western blotting bands and the calculation performed as a result of the analysis of these bands is shown in Figure 2.
# Intracellular LC3 protein amount was observed by western blotting in order to examine the effect of curaglutide on autophagy stimulated by 1,75 mM palmitic acid in INS-1 beta cells.
# [1] = 10 nM curaglutide as curative agent, 2 mM palmitic acid (apoptotic dose)
# [2] = 10 nM curaglutide as protector against 2 mM palmitic acid (apoptotic dose)
compound,measurement,setting,value
CC[C@H](C)[C@H](NC(=O)[C@H](Cc1ccccc1)NC(=O)[C@H](CCC(=O)O)NC(=O)[C@H](CCCCN)NC(=O)[C@H](C)NC(=O)[C@H](C)NC(=O)[C@H](CCC(N)=O)NC(=O)CNC(=O)[C@H](CCC(=O)O)NC(=O)[C@H](CC(C)C)NC(=O)[C@H](Cc1ccc(O)cc1)NC(=O)[C@H](CO)NC(=O)[C@H](CO)NC(=O)[C@@H](NC(=O)[C@H](CC(=O)O)NC(=O)[C@H](CO)NC(=O)[C@@H](NC(=O)[C@H](Cc1ccccc1)NC(=O)[C@@H](NC(=O)CNC(=O)[C@H](CCC(=O)O)NC(=O)[C@H](C)NC(=O)[C@H](Cc1c[nH]cn1)NC(C)=O)[C@@H](C)O)[C@@H](C)O)C(C)C)C(=O)N[C@@H](C)C(=O)N[C@@H](Cc1c[nH]c2ccccc12)C(=O)N[C@@H](CC(C)C)C(=O)N[C@H](C(=O)N[C@@H](CCCCN)C(N)=O)C(C)C [curaglutide],amount of intracellular p53,p53; [1],0.65±0.13
same,amount of intracellular p53,p53; [2],0.54±0.24
same,amount of active caspase-3,active caspase-3; [1],0.54±0.00
same,amount of active caspase-3,active caspase-3; [2],0.67±0.00
same,amount of intracellular LC3-II,"LC3-II; 10 nM curaglutide as curative agent, 1.75 mM palmitic acid (autophagic dose)",0.32±0.00
same,amount of intracellular LC3-II,"LC3-II; 10 nM curaglutide as protector, 1.75 mM palmitic acid (autophagic dose)",0.29±0.00
CCCCCCCCCCCCCCCC(=O)O [palmitic acid],p-53 amounts,"p53; 0.75 mM palmitic acid, control 1.04±0.00",1.1±0.00
same,p-53 amounts,"p53; 1 mM palmitic acid, control 1.04±0.00",1.14±0.00
same,p-53 amounts,"p53; 1.75 mM palmitic acid, control 1.04±0.00",1.16±0.05
same,p-53 amounts,"p53; 2 mM palmitic acid (apoptotic dose), control 1.04±0.00 / 1.06±0.00",1.3±0.02 and 1.31±0.02
same,p-53 amounts,"p53; 2.5 mM palmitic acid, control 1.04±0.00",1.14±0.06
same,p-53 amounts,"p53; 3 mM palmitic acid, control 1.04±0.00",1.03±0.00
same,active caspase-3 amounts,"active caspase-3; 0.75 mM palmitic acid, control 1.08±0.00",1.03±0.03
same,active caspase-3 amounts,"active caspase-3; 1 mM palmitic acid, control 1.08±0.00",1.03±0.00
same,active caspase-3 amounts,"active caspase-3; 1.75 mM palmitic acid, control 1.08±0.00",1.02±0.05
same,active caspase-3 amounts,"active caspase-3; 2 mM palmitic acid (apoptotic dose), control 1.08±0.00 / 1.07±0.01",1.26±0.00 and 1.22±0.00
same,active caspase-3 amounts,"active caspase-3; 2.5 mM palmitic acid, control 1.08±0.00",1.15±0.03
same,active caspase-3 amounts,"active caspase-3; 3 mM palmitic acid, control 1.08±0.00",1.06±0.00
same,LC3-II amounts,"LC3-II; 0.75 mM palmitic acid, band density normalized to β-actin, control 0.50±0.01",0.60±0.00
same,LC3-II amounts,"LC3-II; 1 mM palmitic acid, band density normalized to β-actin, control 0.50±0.01",0.60±0.00
same,LC3-II amounts,"LC3-II; 1.75 mM palmitic acid (autophagic dose), normalized to β-actin, control 0.50±0.01 / 0.44±0.00",0.70±0.03 and 0.70±0.01
same,LC3-II amounts,"LC3-II; 2 mM palmitic acid, band density normalized to β-actin, control 0.50±0.01",0.52±0.02
same,LC3-II amounts,"LC3-II; 2.5 mM palmitic acid, band density normalized to β-actin, control 0.50±0.01",0.50±0.00
same,LC3-II amounts,"LC3-II; 3 mM palmitic acid, band density normalized to β-actin, control 0.50±0.01",0.49±0.01

# Source: patent publication EP3351262A1, “CURAGLUTIDE FOR IN TREATMENT OF PREDIABETES, DIABETES, OBESITY AND METABOLIC DISEASES ASSOCIATED THERETO” (Istanbul Universitesi Rektorlugu, priority 2016, dated 2018)
